The test system of one data set is SW480 cells. Put plainly: BrdU/PI cell cycle analysis. Format: cell-based. As to conditions: 25 μM, 72 h. As to the method:
Cell cycle progression was measured by BrdU labeling of cultured cells that were counterstained with propidium iodide (PI).
SW480 cells were seeded and exposed to compounds for 3 days changing medium every day as described in Example 24. After a 30 minute incubation with 10 μM BrdU, the cells were trypsinized and stained with 1:100 diluted mouse anti-BrdU antibody (Roche) and Alexa Fluor®488 goat anti-mouse antibody (A 11001, Invitrogen). Counterstaining was done with 10 μg/mL PI in 200 μg/mL RNase I (both Sigma). Samples were analyzed on the PAS-PPCS flow cytometer and cell sorter (Partec).

In another data set the test system is SW480 colorectal cells. In words: SW480 xenograft in CB17/SCID mice. Format: in vivo. As to the method:
SW480 colorectal cells were injected subcutaneously into CB17/SCID mice and palpable tumors were detected within 7 days in 50% of the mice. Randomized groups of mice were injected (i.p.) daily with compound No. 1 at doses of […] or 30 mg/kg (delivered daily for five days followed by a 2-day pause) at termination, plasma was collected and tumors were isolated and weighed. 40 female […] (Taconic) were injected subcutaneously (s.c.) at the right posterior flank with 10^7 SW480 cells diluted in 100 μl PBS. Injections were initiated when tumor formation was visible in 50% of the animals (7 days). Mice were randomized and divided into three treatment groups: 150 mg/kg compound No. 1, 300 mg/kg compound No. 1 and vehicle control 1% Tween® 80 (Sigma). Daily injections (200 μl, i.p.) followed (two day injection intermissions after every fifth injection day) until experiment end (29 days). At the termination day, 24 hours after the last injection, blood was collected after cardiac puncture and the tumors were removed and weighed. The compound concentration in plasma and tumors was determined using an on-line and off-line Solid Phase Extraction-Capillary Liquid Chromatography ([…]) instrumentation coupled to a Time of Flight (TOF) mass spectrometer, as previously described (Wilson, S. R. et al., J. Sep. Sci. 28: 1751-1758, 2005). A Zorbax SB C18 5 μm 150×0.3 mm column (Agilent, […], Calif., USA) was used for separation, and a Knauer K-2600 UV detector was used as a complimentary detector. RNA was isolated from representative groups of tumors (n=5) and analysed by real-time RT-PCR as described in Example 25 for expression of Sp5. Results were calculated as the ratio of expression of Sp5 to a control gene (hGUSB). As described in standard protocols, immunostaining was performed with rabbit polyclonal smooth muscle actin (Abcam) and monoclonal β-catenin (BD Transduction LaboratoriesTM), both diluted 1:1000. Secondary antibodies used were 1:500 diluted Alexa Fluor® 594 goat anti-rabbit antibody and Alexa Fluor® 488 goat anti-mouse antibody. The sections were imaged by a Zeiss Axiovert 200M Fluorescence/Live cell Imaging Microscope with X^40 magnification and the same exposure times.

Data set [1] concerns SW480 colon carcinoma cells. Put plainly: MTS cell proliferation assay, Table 5. Format: cell-based. As to conditions: Homo sapiens; SW480, 10 μM, 72 h; relative to DMSO control; read-out: Cell proliferation (%) for test compounds. The procedure, abridged: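 SW480 cells treated with 10 μM compound (0.1% DMSO vehicle) in 10% FBS medium, refreshed daily, for 72 h. MTS reduction read at A490 after 2 h substrate incubation; values are t0-corrected growth as percent of DMSO control.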

The test system of data set [2] is panel of phosphatases and kinases. In words: KinaseProfiler phosphatase and kinase panel (whole). Format: biochemical. Particulars: 10 μM compound.
The next data set concerns the target T1, DUSP22(h) (Homo sapiens, UniProt Q9NRW4).
T1 construct: purchased Millipore (KinaseProfiler service)
Put plainly: Phosphatase screen. Format: biochemical. Particulars: 0.1% DMSO control = 100%.

A further data set addresses T2, LMPTP-B(h) (Homo sapiens, UniProt P24666).
T2 construct: purchased Millipore (KinaseProfiler service)
Put plainly: Phosphatase screen. Format: biochemical. As to conditions: 0.1% DMSO control = 100%.

The target in the next data set is T3, PTP-1B(h) (Homo sapiens, UniProt P18031).
T3 construct: purchased Millipore (KinaseProfiler service)
Put plainly: Phosphatase screen. Format: biochemical. Particulars: 0.1% DMSO control = 100%.

Another data set addresses T4, Aurora-A(h) (Homo sapiens, UniProt O14965).
T4 construct: purchased Millipore (KinaseProfiler service)
Put plainly: Kinase screen. Format: biochemical. Particulars: 0.1% DMSO control = 100%.

A further data set concerns the target T5, cSRC(h) (Homo sapiens, UniProt P12931).
T5 construct: purchased Millipore (KinaseProfiler service)
In words: Kinase screen. Format: biochemical. As to conditions: 0.1% DMSO control = 100%.

A further data set has as its target T6, Fyn(h) (Homo sapiens, UniProt P06241).
T6 construct: purchased Millipore (KinaseProfiler service)
In words: Kinase screen. Format: biochemical. Particulars: 0.1% DMSO control = 100%.

The next data set has as its target T7, GSK3β(h) (Homo sapiens, UniProt P49841).
T7 construct: purchased Millipore (KinaseProfiler service)
Put plainly: Kinase screen. Format: biochemical. Particulars: 0.1% DMSO control = 100%.

The target of the next data set is T8, IGF-1R(h) (Homo sapiens, UniProt P08069).
T8 construct: purchased Millipore (KinaseProfiler service)
In words: Kinase screen. Format: biochemical. Particulars: 0.1% DMSO control = 100%.

For another data set, the target named is T9, IKKα(h) (Homo sapiens, UniProt O15111).
T9 construct: purchased Millipore (KinaseProfiler service)
Put plainly: Kinase screen. Format: biochemical. Particulars: 0.1% DMSO control = 100%.

A further data set concerns the target T10, Lyn(h) (Homo sapiens, UniProt P07948).
T10 construct: purchased Millipore (KinaseProfiler service)
Put plainly: Kinase screen. Format: biochemical. As to conditions: 0.1% DMSO control = 100%.

A further data set has as its target T11, p70S6K(h) (Homo sapiens, UniProt P23443).
T11 construct: purchased Millipore (KinaseProfiler service)
Put plainly: Kinase screen. As to conditions: 0.1% DMSO control = 100%. Format: biochemical.

A further data set deals with T12, PDGFRβ(h) (Homo sapiens, UniProt P09619).
T12 construct: purchased Millipore (KinaseProfiler service)
In words: Kinase screen. Format: biochemical. Particulars: 0.1% DMSO control = 100%.

The target of another data set is T13, Plk3(h) (Homo sapiens, UniProt Q9H4B4).
T13 construct: purchased Millipore (KinaseProfiler service)
In words: Kinase screen. Format: biochemical. Particulars: 0.1% DMSO control = 100%.

A further data set addresses T14, SAPK2a(h) (Homo sapiens, UniProt Q16539).
T14 construct: purchased Millipore (KinaseProfiler Service)
In words: Kinase screen. Format: biochemical. As to conditions: 0.1% DMSO control = 100%.

Molecules are shown by their SMILES.

T13 sequence (Q9H4B4 whole entry): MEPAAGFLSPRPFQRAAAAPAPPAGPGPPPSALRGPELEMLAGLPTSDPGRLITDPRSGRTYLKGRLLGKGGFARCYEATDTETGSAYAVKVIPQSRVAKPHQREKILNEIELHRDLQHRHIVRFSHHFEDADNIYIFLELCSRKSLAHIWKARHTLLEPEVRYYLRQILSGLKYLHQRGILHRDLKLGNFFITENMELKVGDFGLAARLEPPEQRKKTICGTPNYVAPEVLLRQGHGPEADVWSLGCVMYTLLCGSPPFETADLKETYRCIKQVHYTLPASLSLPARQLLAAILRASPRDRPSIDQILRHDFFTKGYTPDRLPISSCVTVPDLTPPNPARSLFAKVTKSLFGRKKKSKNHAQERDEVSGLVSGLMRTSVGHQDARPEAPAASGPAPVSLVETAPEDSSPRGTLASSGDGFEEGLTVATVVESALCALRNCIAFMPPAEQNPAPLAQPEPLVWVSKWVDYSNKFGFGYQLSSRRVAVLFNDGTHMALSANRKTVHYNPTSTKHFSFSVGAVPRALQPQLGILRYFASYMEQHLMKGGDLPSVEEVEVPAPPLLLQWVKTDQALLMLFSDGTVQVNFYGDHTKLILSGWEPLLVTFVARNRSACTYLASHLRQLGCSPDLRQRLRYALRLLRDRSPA
T4 sequence (O14965 whole entry): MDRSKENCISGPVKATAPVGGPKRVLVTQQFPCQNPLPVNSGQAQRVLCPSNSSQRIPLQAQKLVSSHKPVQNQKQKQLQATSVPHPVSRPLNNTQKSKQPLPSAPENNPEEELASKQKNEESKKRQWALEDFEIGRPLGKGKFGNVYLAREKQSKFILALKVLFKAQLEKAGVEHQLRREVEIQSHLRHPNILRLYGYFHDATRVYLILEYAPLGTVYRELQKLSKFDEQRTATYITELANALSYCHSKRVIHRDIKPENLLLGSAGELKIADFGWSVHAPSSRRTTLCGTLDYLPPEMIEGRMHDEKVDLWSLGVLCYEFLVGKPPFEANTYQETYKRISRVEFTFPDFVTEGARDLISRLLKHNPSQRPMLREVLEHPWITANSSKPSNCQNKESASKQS
T12 sequence (P09619 33-1106): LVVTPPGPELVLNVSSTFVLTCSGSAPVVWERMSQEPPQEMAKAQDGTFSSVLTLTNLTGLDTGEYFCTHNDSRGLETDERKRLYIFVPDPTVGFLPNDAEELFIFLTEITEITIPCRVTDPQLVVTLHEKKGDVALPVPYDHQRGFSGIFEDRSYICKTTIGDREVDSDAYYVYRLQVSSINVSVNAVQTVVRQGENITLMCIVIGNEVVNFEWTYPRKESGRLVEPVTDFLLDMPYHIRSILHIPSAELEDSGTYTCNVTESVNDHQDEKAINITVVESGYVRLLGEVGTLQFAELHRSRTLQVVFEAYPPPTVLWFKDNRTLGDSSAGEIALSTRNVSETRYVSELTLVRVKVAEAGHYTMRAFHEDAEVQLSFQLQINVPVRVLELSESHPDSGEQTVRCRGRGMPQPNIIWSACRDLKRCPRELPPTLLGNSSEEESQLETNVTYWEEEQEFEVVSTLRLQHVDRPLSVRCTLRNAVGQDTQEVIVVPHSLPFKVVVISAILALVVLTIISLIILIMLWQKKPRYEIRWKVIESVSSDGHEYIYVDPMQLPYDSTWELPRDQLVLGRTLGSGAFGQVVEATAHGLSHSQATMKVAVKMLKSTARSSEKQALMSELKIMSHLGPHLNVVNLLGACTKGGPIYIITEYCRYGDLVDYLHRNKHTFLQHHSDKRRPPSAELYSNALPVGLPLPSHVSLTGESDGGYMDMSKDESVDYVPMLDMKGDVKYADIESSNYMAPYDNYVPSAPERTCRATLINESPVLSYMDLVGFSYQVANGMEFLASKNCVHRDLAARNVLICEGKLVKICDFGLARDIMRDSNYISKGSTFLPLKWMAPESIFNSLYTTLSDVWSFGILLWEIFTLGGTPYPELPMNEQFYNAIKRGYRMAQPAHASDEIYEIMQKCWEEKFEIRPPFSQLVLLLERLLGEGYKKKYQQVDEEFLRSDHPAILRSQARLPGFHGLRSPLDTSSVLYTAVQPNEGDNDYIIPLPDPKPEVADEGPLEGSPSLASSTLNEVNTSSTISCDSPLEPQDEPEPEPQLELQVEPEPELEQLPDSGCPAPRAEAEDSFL
T6 sequence (P06241 whole entry): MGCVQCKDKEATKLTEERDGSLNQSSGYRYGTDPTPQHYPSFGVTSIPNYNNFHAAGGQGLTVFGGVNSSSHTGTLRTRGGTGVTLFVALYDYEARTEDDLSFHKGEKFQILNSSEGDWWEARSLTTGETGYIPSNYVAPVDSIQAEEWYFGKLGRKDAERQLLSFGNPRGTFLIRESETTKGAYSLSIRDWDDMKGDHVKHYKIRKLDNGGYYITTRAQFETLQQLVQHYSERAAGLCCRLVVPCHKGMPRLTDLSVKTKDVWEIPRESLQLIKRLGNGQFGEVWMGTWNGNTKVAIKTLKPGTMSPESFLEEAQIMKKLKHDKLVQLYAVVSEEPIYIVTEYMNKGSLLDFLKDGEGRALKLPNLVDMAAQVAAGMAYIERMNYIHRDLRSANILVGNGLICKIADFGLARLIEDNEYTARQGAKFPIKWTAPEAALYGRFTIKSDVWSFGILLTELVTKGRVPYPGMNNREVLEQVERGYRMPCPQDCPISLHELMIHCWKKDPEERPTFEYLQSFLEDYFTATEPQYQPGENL
T7 sequence (P49841 whole entry): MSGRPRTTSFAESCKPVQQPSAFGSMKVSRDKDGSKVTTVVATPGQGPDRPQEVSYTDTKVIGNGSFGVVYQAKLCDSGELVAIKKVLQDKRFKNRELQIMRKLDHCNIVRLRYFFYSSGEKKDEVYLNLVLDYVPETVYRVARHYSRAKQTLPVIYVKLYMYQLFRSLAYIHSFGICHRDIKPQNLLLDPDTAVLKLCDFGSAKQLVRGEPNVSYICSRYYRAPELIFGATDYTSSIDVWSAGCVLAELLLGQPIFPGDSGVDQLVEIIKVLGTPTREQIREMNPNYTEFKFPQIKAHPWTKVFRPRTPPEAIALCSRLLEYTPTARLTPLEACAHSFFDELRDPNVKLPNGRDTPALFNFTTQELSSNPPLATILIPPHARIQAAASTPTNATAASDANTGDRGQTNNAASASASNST
T11 sequence (P23443 whole entry): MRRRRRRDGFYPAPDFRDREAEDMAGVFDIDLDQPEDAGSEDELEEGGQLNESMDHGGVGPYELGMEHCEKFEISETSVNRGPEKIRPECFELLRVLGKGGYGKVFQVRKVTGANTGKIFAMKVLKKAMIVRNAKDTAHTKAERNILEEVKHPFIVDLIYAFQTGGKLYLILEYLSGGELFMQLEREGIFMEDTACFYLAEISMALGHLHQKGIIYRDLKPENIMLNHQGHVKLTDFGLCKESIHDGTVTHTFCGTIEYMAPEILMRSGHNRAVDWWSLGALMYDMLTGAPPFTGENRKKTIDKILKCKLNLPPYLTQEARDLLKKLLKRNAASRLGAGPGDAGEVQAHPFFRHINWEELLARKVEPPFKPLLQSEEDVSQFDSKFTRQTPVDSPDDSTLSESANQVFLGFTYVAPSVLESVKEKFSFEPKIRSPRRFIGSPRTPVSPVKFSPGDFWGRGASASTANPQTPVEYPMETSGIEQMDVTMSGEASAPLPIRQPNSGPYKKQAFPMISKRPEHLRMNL
T2 sequence (P24666 1-158 isoform P24666-2): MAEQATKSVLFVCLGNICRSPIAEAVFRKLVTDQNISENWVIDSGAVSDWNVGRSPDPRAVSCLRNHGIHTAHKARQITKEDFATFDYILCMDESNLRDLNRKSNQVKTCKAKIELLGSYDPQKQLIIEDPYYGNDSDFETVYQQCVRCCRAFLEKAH
T9 sequence (O15111 whole entry): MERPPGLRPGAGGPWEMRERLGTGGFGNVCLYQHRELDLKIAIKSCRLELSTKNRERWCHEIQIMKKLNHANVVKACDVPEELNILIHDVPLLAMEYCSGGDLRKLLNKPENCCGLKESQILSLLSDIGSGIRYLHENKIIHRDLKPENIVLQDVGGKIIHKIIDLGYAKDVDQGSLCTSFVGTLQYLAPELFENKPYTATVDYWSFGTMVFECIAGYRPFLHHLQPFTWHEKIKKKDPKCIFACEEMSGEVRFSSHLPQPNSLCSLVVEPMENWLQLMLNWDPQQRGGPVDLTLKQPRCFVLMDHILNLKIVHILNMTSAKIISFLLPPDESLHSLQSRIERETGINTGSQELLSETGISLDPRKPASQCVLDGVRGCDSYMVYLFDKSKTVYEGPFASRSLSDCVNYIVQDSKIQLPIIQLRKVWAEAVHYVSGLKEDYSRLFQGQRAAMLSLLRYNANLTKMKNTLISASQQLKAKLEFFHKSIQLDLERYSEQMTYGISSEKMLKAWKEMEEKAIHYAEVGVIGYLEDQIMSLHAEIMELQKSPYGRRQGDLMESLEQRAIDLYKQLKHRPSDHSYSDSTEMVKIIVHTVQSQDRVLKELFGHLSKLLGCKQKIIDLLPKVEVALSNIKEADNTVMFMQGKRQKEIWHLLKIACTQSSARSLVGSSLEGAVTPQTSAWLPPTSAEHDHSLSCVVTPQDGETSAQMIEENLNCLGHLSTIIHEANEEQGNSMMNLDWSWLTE
T14 sequence (Q16539 whole entry): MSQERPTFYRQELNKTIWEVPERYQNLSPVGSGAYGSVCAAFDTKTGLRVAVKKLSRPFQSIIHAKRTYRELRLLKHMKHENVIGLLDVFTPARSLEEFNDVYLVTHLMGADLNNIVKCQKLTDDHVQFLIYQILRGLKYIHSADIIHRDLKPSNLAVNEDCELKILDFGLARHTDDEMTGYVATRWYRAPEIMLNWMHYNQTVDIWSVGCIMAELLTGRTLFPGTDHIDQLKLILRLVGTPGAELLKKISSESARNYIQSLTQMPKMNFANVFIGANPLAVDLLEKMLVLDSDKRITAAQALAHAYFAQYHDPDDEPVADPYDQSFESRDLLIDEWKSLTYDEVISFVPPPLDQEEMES

As to `COc1ccc(-n2c(SCc3nc(-c4ccc(C)cc4)no3)nnc2-c2ccncc2)cc1` [Compound 1], in the data set with SW480 cells (DMSO control 28.4%), the “percentage of cells in S phase” value is 16.2%. In addition, in the data set with SW480 cells (DMSO control 37.3%), the “percentage of G1-phase cells” value worked out at 46.4%. The “reduction in tumor size, on average” value in the data set with SW480 colorectal cells (150 mg/kg i.p. daily (5 days on, 2 off), 29 days) is 33%; in the data set with SW480 colorectal cells (300 mg/kg i.p. daily (5 days on, 2 off), 29 days), 35%. Also, the “adverse side effects, such as weight loss, during treatment” value in the data set with SW480 colorectal cells (150 or 300 mg/kg i.p., 29 days) is given as “No obvious adverse side effects”. Besides, the “SP5 mRNA in tumors (real-time RT-PCR, relative to hGUSB)” value in the data set with SW480 colorectal cells (both 150 mg/kg and 300 mg/kg doses) is “down-regulated”. For the same compound, the activity at 10 µM worked out at 52% in data set [1]; 101% on DUSP22(h); 100% on LMPTP-B(h); 105% on PTP-1B(h); 95% on Aurora-A(h); 100% at cSRC(h). The activity at 10 µM on Fyn(h) was determined as 83%; on GSK3β(h), 90%; at IGF-1R(h), 149%; on IKKα(h) it was 109%; at Lyn(h) it was 109%; on p70S6K(h) it was 113%. Moreover, the values for the activity at 10 µM at PDGFRβ(h), on Plk3(h) and at SAPK2a(h) were 129%, 104% and 106%, respectively. For the same compound, the “inhibition of kinase or phosphatase activity” value in data set [2] is given as “No extensive inhibition”.

These data come from patent publication US8883827B2, “Azole derivatives as WTN pathway inhibitors” (Oslo University Hospital HF, priority 2009, dated 2014).
